Source: article PMC10622577, “Structural basis for stabilisation of the RAD51 nucleoprotein filament by BRCA2” (Nature Communications, 2023)

Experiments:
[1] = target: T1, RAD51 (Homo sapiens, UniProt Q06609); assay: SPR Kd estimation of TR2 for wild-type and mutant RAD51; assay type: binding; conditions: saturation not achieved, would need >30 uM TR2
T1 construct: made in house; host or cells: E. coli BL21(DE3)Rosetta2
T1 sequence (Q06609 2-339): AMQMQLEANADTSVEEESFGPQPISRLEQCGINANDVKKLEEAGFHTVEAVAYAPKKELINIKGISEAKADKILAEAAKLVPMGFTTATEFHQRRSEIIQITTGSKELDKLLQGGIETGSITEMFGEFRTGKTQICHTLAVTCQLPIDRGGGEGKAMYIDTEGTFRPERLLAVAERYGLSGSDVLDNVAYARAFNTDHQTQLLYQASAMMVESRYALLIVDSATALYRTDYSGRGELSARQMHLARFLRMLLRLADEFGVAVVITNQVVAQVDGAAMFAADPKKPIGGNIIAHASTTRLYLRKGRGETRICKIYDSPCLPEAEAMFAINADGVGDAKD
Experimental: (§1) All binding experiments were performed in CMA buffer: 25 mM HEPES pH 7.4, 100 mM NaCl, 2 mM DTT, 2 mM ATP, 5 mM CaCl2, 5 mM MgCl2. 1 μM RAD51 (wild-type, D184A or D184A, D187A mutant proteins) was injected for 120 seconds followed by buffer for 120 seconds at a flow rate of 10 μl/min. TR2 or BRC4 peptides were then injected in a concentration titration series of 0.1, 0.25, 0.5, 0.75, 1, 2, 3, 5, 7.5, 10 and 15 μM for 120 seconds at a flow rate of […] followed by a dissociation time of 240 seconds. After each injection of BRCA2 peptide, the sensor chip was regenerated with buffer comprising of CMA buffer with 1 M NaCl for 120 seconds at a flow rate of 100 μl/min. All experiments were performed in triplicate.
(§2) For the BRCA2 TR2 titration series, blank-subtracted sensorgrams were used to extract the maximum response accumulated after each TR2 injection. TR2 response accumulation was corrected to account for differences in RAD51 filament formation between runs, by multiplying the maximum response by a scale factor calculated as the ratio between mean RAD51 filament accumulation on each DNA substrate and the mean RAD51 accumulated for each mutant for each triplicate. […]
(§3) consequently the need to inject the TR2 peptide at high concentrations (>30 uM), which would change sample viscosity and affect the refractive index for detection. The Kd values that we obtained based on the measured […]

[2] = target: RAD51; assay: as above; assay type: binding, human; conditions: no binding saturation, large confidence intervals, statistically unreliable, no numbers given
Experimental: as §1, §2, §3

## DDQKNCKKRRALDFLSRLPLPPPVSPICTFVSPAAQKAFQPPRSCGTKY [TR2, BRCA2 TR2 peptide spanning amino acids 3260 to 3308]
[1]
  affinity of TR2 for RAD51: relatively low affinity
[2]
  Kd trend, wild-type versus mutant RAD51: KdwtRAD51 < KdmutRAD51
